Results reported in patent publication US9938269B2, “Inhibitor compounds of phosphodiesterase type 10A” (ABBVIE INC., priority 2011, dated 2018).
Where a name gives a salt, the structure may show the parent alone.

What was measured:
[1] = Determination of the microsomal half-life, rat liver microsomes; details: rat, liver microsomes, pH 7.4
PDE10A (human) = target: T1, PDE10A (human) (Homo sapiens, UniProt Q9Y233); assay: Measurement of PDE activity (HTRF cAMP kit), human PDE10A; format: biochemical; details: PDE enzymatic reaction, substrate 20 nM for PDE10, 60 minutes at 29 C
T1 construct: purchased BPS Bioscience
T1 sequence (Q9Y233 whole entry): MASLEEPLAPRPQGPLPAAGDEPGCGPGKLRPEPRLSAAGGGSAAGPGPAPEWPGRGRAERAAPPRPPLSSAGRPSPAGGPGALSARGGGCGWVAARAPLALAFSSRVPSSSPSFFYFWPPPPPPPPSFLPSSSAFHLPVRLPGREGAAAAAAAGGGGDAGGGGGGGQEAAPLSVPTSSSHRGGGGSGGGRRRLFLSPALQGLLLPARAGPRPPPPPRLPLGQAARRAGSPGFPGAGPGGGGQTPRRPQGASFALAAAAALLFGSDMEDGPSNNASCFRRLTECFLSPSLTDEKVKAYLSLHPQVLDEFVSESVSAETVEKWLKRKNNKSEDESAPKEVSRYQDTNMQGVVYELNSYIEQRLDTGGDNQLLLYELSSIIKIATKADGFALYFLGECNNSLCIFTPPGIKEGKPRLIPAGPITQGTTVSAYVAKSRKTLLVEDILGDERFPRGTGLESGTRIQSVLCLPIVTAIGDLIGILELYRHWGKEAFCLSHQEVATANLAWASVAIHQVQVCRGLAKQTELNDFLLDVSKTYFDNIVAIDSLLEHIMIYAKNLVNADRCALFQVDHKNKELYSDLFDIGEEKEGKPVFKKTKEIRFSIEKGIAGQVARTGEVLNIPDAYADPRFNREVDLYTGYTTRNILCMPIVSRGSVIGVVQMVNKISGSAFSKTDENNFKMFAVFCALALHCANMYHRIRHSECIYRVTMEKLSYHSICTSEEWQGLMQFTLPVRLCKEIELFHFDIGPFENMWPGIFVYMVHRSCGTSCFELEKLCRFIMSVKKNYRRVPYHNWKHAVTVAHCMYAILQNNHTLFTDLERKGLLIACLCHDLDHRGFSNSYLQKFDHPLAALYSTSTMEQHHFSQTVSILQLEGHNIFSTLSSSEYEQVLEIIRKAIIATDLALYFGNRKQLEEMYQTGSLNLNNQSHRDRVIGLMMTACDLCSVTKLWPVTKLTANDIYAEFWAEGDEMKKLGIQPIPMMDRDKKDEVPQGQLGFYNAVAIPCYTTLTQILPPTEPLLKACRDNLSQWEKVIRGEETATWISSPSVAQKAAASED
Procedure, shortened: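 Recombinant human PDE10A (10–250 pM range across PDEs) with 20 nM cAMP substrate in 20 mM Tris-HCl pH 7.5, 10 mM MgCl2, 0.1% BSA, compound pre-mixed with enzyme. Ran 60 min at 29 °C. Remaining cAMP read by HTRF, converted to % of uninhibited activity, and IC50 fitted.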

[2] = Determination of the microsomal half-life, human liver microsomes; details: human, liver microsomes, pH 7.4
Procedure: The test substances were incubated in a concentration of 0.5 μM as follows:
0.5 μM test substance are preincubated together with liver microsomes from different species (from rat, human or other species) (0.25 mg of microsomal protein/10 in 0.05 M potassium phosphate buffer of pH 7.4 in microtiter plates at 37° C. for 5 min. The reaction is started by adding NADPH (1 mg/mL). After 0, 5, 10, 15, 20 and 30 min., 50 μl aliquots are removed, and the reaction is immediately stopped and cooled with the same volume of acetonitrile. The samples are frozen until analyzed. The remaining concentration of undegraded test substance is determined by MSMS. The half-life (T½) is determined from the gradient of the signal of test substance/unit time plot, it being possible to calculate the half-life of the test substance, assuming first order kinetics, from the decrease in the concentration of the compound with time. The microsomal clearance (mCl) is calculated from mCl=ln 2/T½/(content of microsomal protein in mg/ml)×1000 [ml/min/mg]

Structure (SMILES) | microsomal CLint at 0.5 μM [1] | IC50 (PDE10A (human)) | microsomal CLint at 0.5 μM [2]
Cc1ccc2c(c1)nc(CCN1Cc3cccc(N4CCOCC4)c3C1=O)n2C [Example 306, 2-[2-(1,5-Dimethyl-1H-benzoimidazol-2-yl)-ethyl]-7-morpholin-4-yl-2,3-dihydro-isoindol-1-one trifluoroacetate] | < 100 µL/min/mg | < 100 nM | 100 to 220 µL/min/mg
O=C1c2c(cccc2N2CCS(=O)(=O)CC2)CN1CCc1cn2ccccc2n1 [Example 234, 7-(1,1-Dioxothiomorpholin-4-yl)-2-(2-imidazo[1,2-a]pyridin-2-yl-ethyl)-2,3-dihydro-isoindol-1-one] | < 100 µL/min/mg | < 100 nM | < 100 µL/min/mg
Cn1c(CCN2Cc3cccc(-c4cncnc4)c3C2=O)nc2ccccc21 [Example 197, 2-[2-(1-Methyl-1H-benzoimidazol-2-yl)-ethyl]-7-pyrimidin-5-yl-2,3-dihydro-isoindol-1-one] | < 100 µL/min/mg | < 100 nM | 100 to 220 µL/min/mg
O=C1c2c(-c3ccncc3)cccc2C(F)(F)N1CCc1ccc2ccccc2n1 [Example 4, 3,3-Difluoro-7-pyridin-4-yl-2-(2-quinolin-2-yl-ethyl)-2,3-dihydro-isoindol-1-one] | > 220 µL/min/mg | < 100 nM | 100 to 220 µL/min/mg
O=C1c2c(cccc2-c2ccc3[nH]cnc(=O)c3c2)CN1CCc1ccc2ccccc2n1 [Example 7, 6-[3-oxo-2-(2-quinolin-2-yl-ethyl)-2,3-dihydro-1H-isoindol-4-yl]-1H-quinazolin-4-one trifluoroacetate] | 100 to 220 µL/min/mg | 200 to 500 nM | 100 to 220 µL/min/mg
O=C1c2c(cccc2N2CCOCC2)CN1CCc1cn2ccccc2n1 [Example 310, 2-(2-Imidazo[1,2-a]pyridin-2-yl-ethyl)-7-morpholin-4-yl-2,3-dihydro-isoindol-1-one] | < 100 µL/min/mg | < 100 nM | < 100 µL/min/mg
O=C1c2c(cccc2-c2ccc3nn[nH]c3c2)CN1CCc1ccc2ccccc2n1 [Example 10, 7-(3H-Benzotriazol-5-yl)-2-(2-quinolin-2-yl-ethyl)-2,3-dihydro-isoindol-1-one trifluoroacetate] | < 100 µL/min/mg | < 100 nM | 100 to 220 µL/min/mg
O=C1c2c(cccc2-c2cncnc2)CN1CCc1nc2ccccc2[nH]1 [Example 312, 2-[2-(1H-Benzoimidazol-2-yl)-ethyl]-7-pyrimidin-5-yl-2,3-dihydro-isoindol-1-one trifluoroacetate] | < 100 µL/min/mg | < 100 nM | < 100 µL/min/mg
O=C1c2c(-c3cncnc3)ccnc2CN1CCc1cn2ccccc2n1 [Example 256, 6-(2-Imidazo[1,2-a]pyridin-2-yl-ethyl)-4-pyrimidin-5-yl-6,7-dihydro-pyrrolo[3,4-b]pyridin-5-one] | < 100 µL/min/mg | < 100 nM | < 100 µL/min/mg
COc1ccc(N2CCOCC2)c2c1CN(CCc1ccc3ccccc3n1)C2=O [Example 248, 4-Methoxy-7-morpholin-4-yl-2-(2-quinolin-2-yl-ethyl)-2,3-dihydro-isoindol-1-one] | < 100 µL/min/mg | < 100 nM | < 100 µL/min/mg

Further lines, results first:

microsomal CLint at 0.5 μM [1] | IC50 (PDE10A (human)) | microsomal CLint at 0.5 μM [2] | Structure (SMILES)
< 100 µL/min/mg | < 100 nM | < 100 µL/min/mg | Cc1cccn2cc(CCN3Cc4nccc(-c5ccncc5)c4C3=O)nc12 [compound 496, 6-[2-(8-Methylimidazo[1,2-a]pyridin-2-yl)ethyl]-4-(4-pyridyl)-7H-pyrrolo[3,4-b]pyridin-5-one trifluoroacetate]
< 100 µL/min/mg | 200 to 500 nM | < 100 µL/min/mg | Cc1cccnc1CCN1Cc2nccc(-c3ccncc3)c2C1=O [compound 409, 6-[2-(3-Methyl-2-pyridyl)ethyl]-4-(4-pyridyl)-7H-pyrrolo[3,4-b]pyridin-5-one]
> 220 µL/min/mg | 100 to 200 nM | 100 to 220 µL/min/mg | Cc1occc1-c1ccnc2c1C(=O)N(CCc1cn3ccccc3n1)C2 [compound 524, 6-(2-Imidazo[1,2-a]pyridin-2-ylethyl)-4-(2-methyl-3-furyl)-7H-pyrrolo[3,4-b]pyridin-5-one]
< 100 µL/min/mg | 200 to 500 nM | < 100 µL/min/mg | O=C1c2nccc(-c3ccncc3)c2CN1CCc1cn2ccccc2n1 [compound 452, 6-(2-Imidazo[1,2-a]pyridin-2-yl-ethyl)-4-pyridin-4-yl-5,6-dihydro-pyrrolo[3,4-b]pyridin-7-one]
< 100 µL/min/mg | < 100 nM | < 100 µL/min/mg | Cc1ccc2c(c1)nc(CCN1Cc3nccc(N4CCOCC4)c3C1=O)n2C [compound 415, 6-[2-(1,5-Dimethyl-1H-benzoimidazol-2-yl)-ethyl]-4-morpholin-4-yl-6,7-dihydro-pyrrolo[3,4-b]pyridin-5-one]
< 100 µL/min/mg | < 100 nM | < 100 µL/min/mg | Cc1ccc2c(c1)nc(CCN1Cc3nccc(-c4cccnc4)c3C1=O)n2C [compound 539, 6-[2-(1,5-Dimethylbenzimidazol-2-yl)ethyl]-4-(3-pyridyl)-7H-pyrrolo[3,4-b]pyridin-5-one]
100 to 220 µL/min/mg | 100 to 200 nM | < 100 µL/min/mg | O=C1c2c(-c3ccc(F)cc3)ccnc2CN1CCc1nc2ccccc2s1 [compound 542, 6-[2-(1,3-Benzothiazol-2-yl)ethyl]-4-(4-fluorophenyl)-7H-pyrrolo[3,4-b]pyridin-5-one trifluoroacetate]
100 to 220 µL/min/mg | 100 to 200 nM | 100 to 220 µL/min/mg | Cc1cnc(CCN2Cc3nccc(-c4ccncc4)c3C2=O)c(C)c1 [compound 473, 6-[2-(3,5-Dimethyl-2-pyridyl)ethyl]-4-(4-pyridyl)-7H-pyrrolo[3,4-b]pyridin-5-one]
< 100 µL/min/mg | < 100 nM | < 100 µL/min/mg | O=C1c2c(-c3ccncc3)ccnc2CN1CCc1cn2ccccc2n1 [Example 369, 6-(2-Imidazo[1,2-a]pyridin-2-yl-ethyl)-4-pyridin-4-yl-6,7-dihydro-pyrrolo[3,4-b]pyridin-5-one]
< 100 µL/min/mg | 100 to 200 nM | < 100 µL/min/mg | Cc1ncc(-c2ccnc3c2C(=O)N(CCc2nc4ccccc4s2)C3)cn1 [compound 445, 6-[2-(1,3-Benzothiazol-2-yl)ethyl]-4-(2-methylpyrimidin-5-yl)-7H-pyrrolo[3,4-b]pyridin-5-one]
100 to 220 µL/min/mg | 100 to 200 nM | 100 to 220 µL/min/mg | Cc1ccc(CCN2Cc3nccc(-c4ccncc4)c3C2=O)nc1C [compound 474, 6-[2-(5,6-Dimethyl-2-pyridyl)ethyl]-4-(4-pyridyl)-7H-pyrrolo[3,4-b]pyridin-5-one trifluoroacetate]
< 100 µL/min/mg | 200 to 500 nM | 100 to 220 µL/min/mg | O=C1c2c(cccc2N2C[C@@H]3CCCNC[C@H]3C2)CN1CCc1ccc2ccccc2n1 [Example 317, 7-(3aS,8aR)-Octahydro-pyrrolo[3,4-c]azepin-2-yl-2-(2-quinolin-2-yl-ethyl)-2,3-dihydro-isoindol-1-one trifluoroacetate]
